These results are taken from the supplement of paper PMC9334596.

This assay deals with mPer2Luc MEF. Nature of the assay: PER2::LUC luminescence relative to vehicle control (fold of vehicle); higher = higher PER2::LUC reporter signal. In a few lines: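 Embryonic fibroblasts from PER2::LUC knock-in reporter mice were grown in DMEM with 10% FBS at 37 °C and 5% CO2. Compounds were applied as a six-point threefold dilution series from 10 μM down to 0.04 μM, and luminescence was read 24 h and 30 h after treatment. The value is PER2::LUC luminescence expressed as fold of the vehicle-treated wells.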

Setting [1] is: time after treatment: 24-hour, concentration: 0.04μM.
Where [2] appears, read: time after treatment: 24-hour, concentration: 0.37μM.
The mark [3] stands for this setting: time after treatment: 24-hour, concentration: 3.33μM.
Setting [4] is: time after treatment: 24-hour, concentration: 10μM.
Where [5] appears, read: time after treatment: 30-hour, concentration: 0.04μM.
[6] abbreviates: time after treatment: 30-hour, concentration: 0.37μM.
[7] abbreviates: time after treatment: 30-hour, concentration: 3.33μM.
The mark [8] stands for this setting: time after treatment: 30-hour, concentration: 10μM.

Consider `Cc1nc(Nc2ncc(C(=O)Nc3c(C)cccc3Cl)s2)cc(N2CCN(CCO)CC2)n1` [Dasatinib], for which the “PER2::LUC luminescence” value runs as follows: under setting [1], 0.438; under setting [2], 0.416; under setting [3], 0.269; under setting [4], 0.074; under setting [5], 0.368; under setting [6], 0.366. Also, the “PER2::LUC luminescence” value under setting [7] amounted to 0.244 and the “PER2::LUC luminescence” value under setting [8] is 0.084.

Take `C[C@H](NC(=O)/C(C#N)=C/c1cccc(Br)n1)c1ccccc1` [WP1066]: the “PER2::LUC luminescence” value was found to be 1.1 under setting [1]; 1.03 under setting [2]; 1.14 under setting [3]; 0.142 under setting [4]; 1.02 under setting [5]; 1.02 under setting [6]. Besides, the “PER2::LUC luminescence” value worked out at 0.891 under setting [7] and 0.13 under setting [8].

For `CN1CCN(c2nc3ccccc3nc2Cl)CC1`, the “PER2::LUC luminescence” value under setting [1] turned out to be 1; the “PER2::LUC luminescence” value under setting [2] came to 1.02; the “PER2::LUC luminescence” value under setting [3] worked out at 1.02; the “PER2::LUC luminescence” value under setting [4] is 0.958; the “PER2::LUC luminescence” value under setting [5] was 1.04; the “PER2::LUC luminescence” value under setting [6] was 1.05. Also, the “PER2::LUC luminescence” value reads like this: under setting [7], 1.04; under setting [8], 0.971.

On to `Nc1nc(N)c2nc(-c3cccc(O)c3)cnc2n1`, for which the “PER2::LUC luminescence” value reads like this: under setting [1], 0.893; under setting [2], 0.833; under setting [3], 0.854; under setting [4], 0.608; under setting [5], 0.829; under setting [6], 0.88. In addition, the “PER2::LUC luminescence” value is, setting by setting: under setting [7], 0.803; under setting [8], 0.578.
